How the values were obtained:
Assay type in all cases: cell-based
[1] = test system: MCF7, HCT116, HeLa and A549 cells; test: Cell cycle analysis by flow cytometry, four cell lines; conditions: for G1 and S phases arrest: four cell lines
Protocol: (§1) The effect of the HH32 and HH33 compounds on the distribution of cell cycle at different time points (2, 4, 8, 24, 48, and 72 hours) was analyzed using flow cytometry. Briefly, the cells were harvested and fixed in 70% ethanol for 24 hours at −20° C. The fixed cells were treated with RNAase […] (Sigma Aldrich, Missouri, USA) and stained with propidium iodide […] (Sigma Aldrich, Missouri, USA). The data were acquired using BD Accuri C6 flow cytometer (Becton Dickenson, San Jose, CA, USA) and analysis was done using Flow Jo software (Tree Star, Inc, Ashland, OR, USA).

A549 [2] = test: SRB cytotoxicity assay, A549; conditions: for IC50: A549, SRB, mean ± SEM
Text: (§2) Eight different cancer cell lines were acquired from the Radiobiology and Experimental Radio Oncology lab, University Medical Center, Hamburg University, Hamburg, Germany. MCF7, MDA-MB-231 (breast cancer), and A549 (lung cancer) cells were maintained in RPMI medium while HCT116 (colon cancer), HepG2 (liver cancer), U87, U373 (glioblastoma), and HeLa (cervical cancer) were maintained in DMEM supplemented with 10% FBS and 1% penicillin/streptomycin (Sigma Aldrich, Missouri, USA). Normal human fibroblast (F180) cells were maintained in DMEM supplemented with 15% FBS. Normal human mammary epithelial cell line (HME1) were maintained in DMEM/F-12 medium supplemented with 10% FBS. All incubations were done at 37° C. in a humidified atmosphere of 5% CO2. All cell lines were authenticated by short tandem repeat (STR) profiling. The CDK4 knockout cells (provided by Dr. Samrein Ahmed, University of Sharjah, United Arab Emirates) were generated by CRISPR-CAS9 technology and were maintained in DMEM supplemented with 10% FBS.
(§3) The cytotoxic effects of HH32 and HH33 compounds were evaluated at various concentrations ranging from 0.0001 to 100 μM by sulphrhodamine-B (SRB) assay as described previously. The anti-proliferative activity was expressed as growth inhibitory concentration (IC50) values, which were calculated by the sigmoidal dose-response curve fitting method using Graph pad prism 6 software (GraphPad Software, San Diego, CA, USA).

[3] = test system: MCF7, HCT-116, HeLa and A549 cells; test: Annexin V/PI apoptosis analysis; conditions: for early apoptotic cell population (Annexin V+/PI-): 24 and 48 hours
Protocol: The cells were collected at 12, 24 and 48 hours after treatment with […] of HH32 and HH33 compounds. The detection of early and late apoptotic cell death was done using FITC Annexin V Apoptosis Detection Kit (Becton Dickenson, California, USA) according to the manufacturer's protocol. The data were analyzed by BD Accuri C6 flow cytometer (Becton Dickenson, New Jersey, USA).

MCF7 = test: SRB cytotoxicity assay, MCF7; conditions: for IC50: MCF7, SRB, mean ± SEM
Text: as §2, §3

U373 = test: SRB cytotoxicity assay, U373
Text: as §2, §3

HCT-116 = test: SRB cytotoxicity assay, HCT-116
Text: as §2, §3

MCF7 cells [4] = test: Transcriptomic analysis of HH33-treated MCF7 cells; conditions: confirmed by quantitative RT-PCR
HeLa cells = test: Cell cycle analysis by flow cytometry, HeLa; conditions: 1 μM, peak at 24 hours, Control 36.9%
Protocol: as §1

A549 [5] = test: Cell cycle analysis by flow cytometry, A549; conditions: 1 μM, up to 72 hours, Control 8.5%
Protocol: as §1

HCT116 = test: Cell cycle analysis by flow cytometry, HCT116; conditions: 1 μM, peak at 8 hours, Control 27.4%
Protocol: as §1

MCF7 cells [6] = test: Transcriptomic analysis of HH33-treated MCF7 cells
Protocol: RNA extraction was carried out followed by cDNA synthesis using SuperScript VILO cDNA Synthesis kit (Invitrogen, Waltham, MA, USA) and amplification using Ion AmpliSeq gene expression core panel primers. The prepared library was purified using Agencourt AMPure XP beads (Beckman Coulter, California, USA) and quantified using Ion Library TaqMan™ Quantitation Kit (Applied Biosystems, Waltham, MA, USA). The libraries were further diluted to […] and pooled equally with four individual samples per pool. The pooled libraries were amplified using emulsion PCR on Ion OneTouch™ 2 instrument (OT2) and the enrichment was performed on Ion OneTouch™ ES following the manufacturer's instruction. Thus, prepared template libraries were then sequenced with Ion S5 XL Semiconductor sequencer using the Ion 540™ Chip. RNA-seq data were analyzed using Ion Torrent Software Suite version 5.4 and the alignment was carried out using modifications of the Torrent Mapping Alignment Program (TMAP) optimizing it for aligning the raw sequencing reads against reference sequence derived from hgl9 (GRCh37) assembly. The specificity and sensitivity was maintained by implementing a two-stage mapping approach by employing BWA-short, BWA-long, SSAHA [31], Super-maximal Exact Matching and Smith Waterman algorithm for optimal mapping. Raw read counts of the targeted genes were performed using Samtools (Samtools view —c -F 4-L bed_file bam_file) and the number of expressed transcripts was confirmed after Fragments Per Kilobase Million (FPKM) normalisation. Differentially expressed gene (DEG) analysis was performed using a script written in R programming language (version 3.6.3) with function calls to DESeq2 package from Bioconductor library sets. Raw read counts from RNASeq were normalized using quantile normalization. All counts ranked “0” were excluded. Differentially expressed genes between the two set of cell lines [HH33-treated (n=3), and untreated (n=3)] were assessed using 2 tailed t-test. Differentially expressed genes with p-value of <0.05, adjusted p-value<0.8 and 5-fold difference were included for pathway analysis using Metascape.

[7] = H33-treated vs DMSO-treated, DNA repair pathways

With `COC(=O)c1cc(NC2=NC(=O)C(=Cc3ccc(C)cc3)S2)ccc1OC(C)=O` [HH32, Methyl 2-acetoxy-5-[(5-(4-methylbenzylidene)-4 (H)-oxo-1,3-thiazol-2-yl)-amino]benzoate] the “G1 and S phases arrest” value [1] was “no signs”, the IC50 (A549 [2]) was 6.17 ± 0.38 µM and the Selectivity index (A549 [2]; F180 versus A549) was 2.16. For the same compound, the Selectivity index (A549 [2]; HME1 versus A549) was 4.3, the “late apoptotic/dead cells (Annexin V+/PI+)” value (shortened to “late apoptotic/dead cells”) ([3]; HCT-116 cells) was “elevated” and the “early apoptotic cell population (Annexin V+/PI-)” value ([3]; four cell lines) was “no sign of early apoptosis induction”. It also gave a Selectivity index (MCF7; F180 versus MCF7) of 3.88, a Selectivity index (MCF7; HME1 versus MCF7) of 7.8 and an IC50 (MCF7) of 3.44 ± 0.32 µM. It also gave a Selectivity index (U373; F180 versus U373) of 0.45, a Selectivity index (U373; HME1 versus U373) of 0.9 and an IC50 (U373; U373, SRB, mean ± SEM) of 29.38 ± 0.08 µM. For the same compound, the Selectivity index (HCT-116; F180 versus HCT116) was 11.4, the IC50 (HCT-116; HCT-116, SRB, mean ± SEM) was 1.17 ± 0.46 µM and the Selectivity index (HCT-116; HME1 versus HCT116) was 22.9.
For `COC(=O)c1cc(NC2=NC(=O)C(=Cc3ccc(N(C)C)cc3)S2)ccc1OC(C)=O` [HH33, Methyl 2-acetoxy-5-[(5-(4-dimethylaminobenzylidene)-4 (H)-oxo-1,3-thiazol-2-yl)-amino]benzoate], the “percentage of cancer cells arrested at the G2/M border” value [1] was “up to 90%”, the “G1 and S phases arrest” value [1] was “no signs” and the “six shared genes (ATAD2, CDCA3, FAMIIIB, CDKN3, HISTIH2AH, MIS18BP1)” value (MCF7 cells [4]) was “maximally downregulated”. The G2/M phase accumulation (HeLa cells) was 93.9%, the IC50 (A549 [2]) was 2.93 ± 0.83 µM and the Selectivity index (A549 [2]; F180 versus A549) was 1.3. For the same compound, the Selectivity index (A549 [2]; HME1 versus A549) was 3.2, the “late apoptotic/dead cells” value ([3]; HCT-116 cells) was “elevated” and the “early apoptotic cell population (Annexin V+/PI-)” value ([3]; four cell lines) was “increased”. For the same compound, the “late apoptotic/dead cells” value ([3]; four cell lines, with increasing concentration) was “increased”, the “G2/M cell cycle arrest” value (A549 [5]) was 45.1% and the Selectivity index (MCF7; F180 versus MCF7) was 4.89. It also gave a Selectivity index (MCF7; HME1 versus MCF7) of 11.4, an IC50 (MCF7) of 0.81 ± 0.34 µM and a G2/M phase accumulation (HCT116) of 77.4%. For the same compound, the Selectivity index (U373; F180 versus U373) was 0.17, the Selectivity index (U373; HME1 versus U373) was 0.4 and the “Fold change (H_Mean/D_Mean) CDC45” value (MCF7 cells [6]; [7]) was 0.1426. For the same compound, the “Fold change (H_Mean/D_Mean) CHAF1B” value (MCF7 cells [6]; [7]) was 0.5251, the “Fold change (H_Mean/D_Mean) DDX11” value (MCF7 cells [6]; [7]) was 0.4961 and the “Fold change (H_Mean/D_Mean) ESCO2” value (MCF7 cells [6]; [7]) was 0.2719. For the same compound, the “Fold change (H_Mean/D_Mean) GTF2H2C” value (MCF7 cells [6]; [7]) was 0.2907, the “Fold change (H_Mean/D_Mean) MCM6” value (MCF7 cells [6]; [7]) was 0.4195 and the “Fold change (H_Mean/D_Mean) MMS22L” value (MCF7 cells [6]; [7]) was 0.2144. The “Fold change (H_Mean/D_Mean) PIAS4” value (MCF7 cells [6]; [7]) was 0.6961, the “Fold change (H_Mean/D_Mean) POLA1” value (MCF7 cells [6]; [7]) was 0.196 and the “Fold change (H_Mean/D_Mean) RAD17” value (MCF7 cells [6]; [7]) was 0.3003. For the same compound, the “Fold change (H_Mean/D_Mean) RAD51” value (MCF7 cells [6]; [7]) was 0.2505, the “Fold change (H_Mean/D_Mean) RAD51AP1” value (MCF7 cells [6]; [7]) was 0.2877 and the “Fold change (H_Mean/D_Mean) RECQL” value (MCF7 cells [6]; [7]) was 0.212. The “Fold change (H_Mean/D_Mean) RIF1” value (MCF7 cells [6]; [7]) was 0.3166, the “Fold change (H_Mean/D_Mean) RNF111” value (MCF7 cells [6]; [7]) was 0.5331 and the “Fold change (H_Mean/D_Mean) RNF168” value (MCF7 cells [6]; [7]) was 0.2605. For the same compound, the “Fold change (H_Mean/D_Mean) TRIP13” value (MCF7 cells [6]; [7]) was 0.4436, the “Fold change (H_Mean/D_Mean) UBE2N” value (MCF7 cells [6]; [7]) was 0.3688 and the “Fold change (H_Mean/D_Mean) UBE2W” value (MCF7 cells [6]; [7]) was 0.224. The “Fold change (H_Mean/D_Mean) ZSWIM7” value (MCF7 cells [6]; [7]) was 0.3144, the “pathways related to DNA repair and cell cycle progression” value (MCF7 cells [6]; hypergeometric test) was “down-regulation” and the Selectivity index (HCT-116; F180 versus HCT116) was 13.48. The “potency compared with doxorubicin” value (HCT-116; HCT-116 cells) was “nearby equipotent” and the Selectivity index (HCT-116; HME1 versus HCT116) was 31.9.

From US20250002467A1, “DESIGN, SYNTHESIS AND MECHANISMS OF ANTICANCER ACTIVITY OF NEW ACETYLATED 5-AMINOSALICYLATE-THIAZOLINONE HYBRID DERIVATIVES” (University of Sharjah, priority 2023, published 2025)
